Tests used:
[1] = biological target: T1, full length recombinant Pim-1 protein (Homo sapiens, UniProt P11309); experiment: Pim-1 enzyme assay (HTRF, phosphorylation of biotinylated-BAD (S112) peptide); type: biochemical; details: read-out: Pim_1_IC50
T1 construct: by full length recombinant Pim-1, Pim-2, or Pim-3 protein; hexahistidine tag followed by a thrombin cleavage site (N); made in house; host or cells: Sf9 (baculovirus) or E. coli (pET28)
Procedure, shortened: (§1)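 Recombinant full-length Pim-1 or Pim-2 was incubated with biotinylated BAD (S112) peptide in pH 7.0 Hepes buffer with BSA and DTT. After an EDTA stop, phosphopeptide was quantified by time-resolved FRET between a europium antibody and streptavidin-APC, and IC50 values came from 4-parameter logistic curves.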

[2] = biological target: T2, full length recombinant Pim-2 protein (Homo sapiens, UniProt Q9P1W9); experiment: Pim-2 enzyme assay (HTRF, phosphorylation of biotinylated-BAD (S112) peptide); type: biochemical; details: read-out: Pim2_IC50
T2 construct: by full length recombinant Pim-1, Pim-2, or Pim-3 protein; hexahistidine tag followed by a thrombin cleavage site (N); made in house; host or cells: Sf9 (baculovirus) or E. coli (pET28)
T2 sequence (Q9P1W9 whole entry): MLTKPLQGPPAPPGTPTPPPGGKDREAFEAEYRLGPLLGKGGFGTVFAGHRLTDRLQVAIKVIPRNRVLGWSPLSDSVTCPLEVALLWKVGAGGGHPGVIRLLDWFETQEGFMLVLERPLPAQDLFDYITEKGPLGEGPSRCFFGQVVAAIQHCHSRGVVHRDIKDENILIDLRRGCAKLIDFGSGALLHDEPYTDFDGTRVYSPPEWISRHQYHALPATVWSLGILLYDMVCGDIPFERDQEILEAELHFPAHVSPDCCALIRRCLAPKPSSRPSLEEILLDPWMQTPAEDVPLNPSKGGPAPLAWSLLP
Procedure, shortened: as §1

[3] = biological target: T3, Pim-1 stably transfected into the U2OS human osteogenic sarcoma line (Homo sapiens, UniProt P11309); experiment: Pim cell assay, phospho-BAD normalized against total BAD, U2OS stably transfected with Pim-1; type: cell-based; details: U2OS stably transfected with Pim-1; phospho-BAD normalized against total BAD; 29 min incubation; read-out: Pim1_Cell_IC50_
T3 construct: expressed in transfected cells; host or cells: U2OS human osteogenic sarcoma line
T3 sequence (P11309 whole entry): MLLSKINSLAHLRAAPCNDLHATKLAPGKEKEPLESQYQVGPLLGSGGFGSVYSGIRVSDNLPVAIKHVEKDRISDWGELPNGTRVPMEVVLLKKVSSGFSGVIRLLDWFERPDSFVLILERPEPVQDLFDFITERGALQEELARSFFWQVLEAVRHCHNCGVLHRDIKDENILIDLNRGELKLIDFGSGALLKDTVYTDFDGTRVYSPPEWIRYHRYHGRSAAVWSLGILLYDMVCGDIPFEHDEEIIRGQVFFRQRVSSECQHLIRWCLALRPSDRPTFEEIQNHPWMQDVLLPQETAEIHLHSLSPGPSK
Protocol: (§2) The cell lines used in the assay were generated by the stable transfection of either Pim-1 or Pim-2 into the U2OS human osteogenic sarcoma line. The assay for determination of the Pim activity in the engineered U2OS cell lines measures levels of phospho-BAD normalized against total BAD protein levels. It was conducted as follows:
(§3) The adherent cells were dissociated from the flasks using non-enzymatic cell dissociation solution (Sigma # C5914). […] The cells were then incubated overnight at 37° C., 5% CO2.
(§4) In addition to the 10-point dosing curve of the test compound, DMSO alone was run as the high control.
(§5) This dilution in DMSO was then diluted again into cell growth medium. Aliquots (12 uL) of the compound diluted in growth medium were then transferred to the appropriate wells of the 96-well plates containing cells to yield a final DMSO concentration of 0.3%.
(§6) The cell plates containing lysis buffer were then immediately stored at −70° C.
(§7) These prepared lysates were then assayed for phospho and total BAD according to the manufacturer's protocols (Meso Scale Diagnostics, Cat# K15103C-3 & # K15103D-3). The plates were read on the MSD Sector Imager 6000, and results were calculated according to the assay protocols ((% Phosphoprotein=((2×Phospho signal)/(Phospho signal+Total signal))×100)).

[4] = biological target: T4, Pim-2 stably transfected into the U2OS human osteogenic sarcoma line (Homo sapiens, UniProt Q9P1W9); experiment: Pim cell assay, phospho-BAD normalized against total BAD, U2OS stably transfected with Pim-2; type: cell-based; details: U2OS stably transfected with Pim-2; phospho-BAD normalized against total BAD; 29 min incubation; read-out: Pim2_Cell_IC50_
T4 construct: expressed in transfected cells; host or cells: U2OS human osteogenic sarcoma line
T4 sequence (Q9P1W9 whole entry): as the sequence (Q9P1W9 whole entry) above
Protocol: as §2, §3, §4, §5, §6, §7

T1 sequence (P11309 whole entry): as the sequence (P11309 whole entry) above

SMILES | IC50 [1] | IC50 [2] | IC50 [3] | IC50 [4]
Oc1ncc(-c2ccc3[nH]cc(-c4cncc(O[C@@H]5CCCNC5)n4)c3c2)c(O)n1 [Example 293] | 16 nM | 60 nM | > 31600 nM | > 31.6 µM
Fc1cnccc1-c1ccc2[nH]cc(-c3cncc(O[C@@H]4CCCNC4)n3)c2c1 [Example 297, 5-(3-fluoro-4-pyridinyl)-3-(6-((3R)-3-piperidinyloxy)-2-pyrazinyl)-1H-indole] | 3 nM | 7 nM | 166 nM | 8.45 µM
c1cc(-c2ccc3[nH]cc(-c4cncc(O[C@@H]5CCCNC5)n4)c3c2)nc(N2CCNCC2)c1 [Example 299] | 3 nM | 231 nM | 1270 nM | > 31.6 µM
OCc1cccc(-c2ccc3[nH]cc(-c4cncc(O[C@@H]5CCCNC5)n4)c3c2)c1 [Example 315] | 7 nM | 24 nM | 444 nM | 9.06 µM
OCc1ccc(-c2ccc3[nH]cc(-c4cncc(O[C@@H]5CCCNC5)n4)c3c2)cc1 [Example 316, (4-(3-(6-((3R)-3-piperidinyloxy)-2-pyrazinyl)-1H-indol-5-yl)phenyl)methanol] | 2 nM | 9 nM | 103 nM | 3.4 µM
N#Cc1ccccc1-c1ccc2[nH]cc(-c3cncc(O[C@@H]4CCCNC4)n3)c2c1 [Example 326] | 3 nM | 10 nM | 314 nM | 7.19 µM
N#Cc1ncccc1-c1ccc2[nH]cc(-c3cncc(O[C@@H]4CCCNC4)n3)c2c1 [Example 333] | 11 nM | 40 nM | 803 nM | > 10 µM
Cc1n[nH]c2ncc(-c3ccc4[nH]cc(-c5cncc(O[C@@H]6CCCNC6)n5)c4c3)cc12 [Example 339] | 14 nM | 92 nM | 2580 nM | > 31.6 µM
c1cc2c(cc1-c1ccc3[nH]cc(-c4cncc(O[C@@H]5CCCNC5)n4)c3c1)OCO2 [Example 343] | 4 nM | 19 nM | 1210 nM | > 15.8 µM
FC(F)Oc1cccc(-c2ccc3[nH]cc(-c4cncc(O[C@@H]5CCCNC5)n4)c3c2)c1 [Example 344] | 9 nM | 68 nM | 3610 nM | > 15.8 µM
CN1CCOc2cc(-c3ccc4[nH]cc(-c5cncc(O[C@@H]6CCCNC6)n5)c4c3)ccc21 [Example 347] | 2 nM | 16 nM | 273 nM | 9.69 µM
N#CC1(c2cccc(-c3ccc4[nH]cc(-c5cncc(O[C@@H]6CCCNC6)n5)c4c3)c2)CCC1 [Example 350] | 6 nM | 193 nM | 2360 nM | > 15.8 µM
CC(C)Oc1cccc(-c2ccc3[nH]cc(-c4cncc(O[C@@H]5CCCNC5)n4)c3c2)c1 [Example 360] | 8 nM | 94 nM | 2720 nM | > 15.8 µM
c1cc2[nH]nc(-c3cncc(OC4CCNCC45CC5)n3)c2cc1-c1cncc(C2CC2)n1 (centres unmarked) [Example 372] | 1 nM | 7 nM | 200 nM | > 10 µM
c1cc2[nH]nc(-c3cncc(O[C@@H]4CCNCC45CC5)n3)c2cc1-c1cncc(C2CC2)n1 [Example 373, 3-(6-((8R)-5-azaspiro[2.5]oct-8-yloxy)-2-pyrazinyl)-5-(6-cyclopropyl-2-pyrazinyl)-1H-indazole] | 1 nM | 5 nM | 130 nM | 3.37 µM
COc1cncc(-c2n[nH]c3ccc(-c4cncc(C5CC5)n4)cc23)n1 [Example 379] | 2 nM | 16 nM | 657 nM | > 31.6 µM
CC(C)Oc1cncc(-c2n[nH]c3ccc(-c4cncc(C5CC5)n4)cc23)n1 [Example 381] | 4 nM | 37 nM | 772 nM | > 31.6 µM

Further compounds by falling IC50 [1], results first:

IC50 [1] | IC50 [2] | IC50 [3] | IC50 [4] | SMILES
20 nM | 157 nM | 729 nM | > 15.8 µM | COc1ccc(-c2ccc3[nH]cc(-c4cncc(O[C@@H]5CCCNC5)n4)c3c2)cc1OC [Example 345]
14 nM | 27 nM | 868 nM | 8.8 µM | CC(O)c1cccc(-c2ccc3[nH]nc(-c4cncc(O[C@@H]5CCCNC5)n4)c3c2)c1 (some centres unmarked) [Example 367]
12 nM | 71 nM | 2070 nM | > 31.6 µM | c1cc(-c2ccc3[nH]nc(-c4cncc(O[C@@H]5CCCNC5)n4)c3c2)nc(C2CC2)n1 [Example 361]
9 nM | 69 nM | 1270 nM | > 15.8 µM | Nc1ccc(-c2ccc3[nH]cc(-c4cncc(O[C@@H]5CCCNC5)n4)c3c2)cc1OC(F)(F)F [Example 341]
8 nM | 25 nM | 412 nM | > 31.6 µM | O=C(Nc1ccc(-c2ccc3[nH]cc(-c4cncc(O[C@@H]5CCCNC5)n4)c3c2)cc1)C1CC1 [Example 311]
8 nM | 33 nM | 857 nM | > 10 µM | c1cc2cc(-c3ccc4[nH]cc(-c5cncc(O[C@@H]6CCCNC6)n5)c4c3)cnc2[nH]1 [Example 336]
7 nM | 26 nM | 521 nM | 9.44 µM | COc1cc(OC)cc(-c2ccc3[nH]cc(-c4cncc(O[C@@H]5CCCNC5)n4)c3c2)c1 [Example 294]
6 nM | 37 nM | 23 nM | 1.77 µM | CC(C)Nc1cncc(-c2n[nH]c3ccc(-c4cncc(C5CC5)n4)cc23)n1 [Example 368, 6-(5-(6-cyclopropyl-2-pyrazinyl)-1H-indazol-3-yl)-N-(1-methylethyl)-2-pyrazinamine]
6 nM | 11 nM | 61 nM | > 31.6 µM | Nc1cncc(-c2ccc3[nH]nc(-c4cncc(OCCF)n4)c3c2)n1 [Example 386, 6-(3-(6-(2-fluoroethoxy)-2-pyrazinyl)-1H-indazol-5-yl)-2-pyrazinamine]
5 nM | 19 nM | 662 nM | 23.6 µM | COc1ccc(-c2ccc3[nH]cc(-c4cncc(O[C@@H]5CCCNC5)n4)c3c2)cc1 [Example 321]
5 nM | 19 nM | 666 nM | 8.06 µM | CC(=O)Nc1ccc(-c2ccc3[nH]cc(-c4cncc(O[C@@H]5CCCNC5)n4)c3c2)cc1 [Example 327]
5 nM | 72 nM | 1060 nM | > 31.6 µM | c1cc2[nH]cc(-c3cncc(O[C@@H]4CCCNC4)n3)c2cc1-c1cnc2c(c1)CCCN2 [Example 335]
4 nM | 18 nM | 125 nM | 17 µM | c1cc(N2CCOCC2)ccc1-c1ccc2[nH]cc(-c3cncc(O[C@@H]4CCCNC4)n3)c2c1 [Example 309, 5-(4-(4-morpholinyl)phenyl)-3-(6-((3R)-3-piperidinyloxy)-2-pyrazinyl)-1H-indole]
4 nM | 34 nM | 957 nM | > 31.6 µM | CC(C)Oc1ccc(-c2ccc3[nH]cc(-c4cncc(O[C@@H]5CCCNC5)n4)c3c2)cc1 [Example 324]
4 nM | 27 nM | 207 nM | > 31.6 µM | FCCOc1cncc(-c2n[nH]c3ccc(-c4cncc(C5CC5)n4)cc23)n1 [Example 384]
3 nM | 7 nM | 864 nM | 4.15 µM | CC(C)NC(=O)c1ccc(F)c(-c2ccc3[nH]nc(-c4cncc(N[C@@H]5CCCNC5)n4)c3c2)c1 [Example 362]
1 nM | 17 nM | 312 nM | 8.09 µM | c1cc2[nH]nc(-c3cncc(O[C@H]4CCNCC45CC5)n3)c2cc1-c1cncc(C2CC2)n1 [Example 374, 3-(6-((8S)-5-azaspiro[2.5]oct-8-yloxy)-2-pyrazinyl)-5-(6-cyclopropyl-2-pyrazinyl)-1H-indazole]
1 nM | 10 nM | 44 nM | 21.8 µM | COc1cncc(-c2n[nH]c3ccc(-c4cncc(NC5CC5)n4)cc23)n1 [Example 383, N-cyclopropyl-6-(3-(6-methoxy-2-pyrazinyl)-1H-indazol-5-yl)-2-pyrazinamine]
